Results taken from patent US20100003250A1, “(2-ARYL-7H-PYRROLO[2,3-D]PYRIMIDIN-4-YL)MORPHOLINE COMPOUNDS, THEIR USE AS MTOR KINASE AND PI3 KINASE INHIBITORS, AND THEIR SYNTHESES” (Wyeth, priority 2008, published 2010).
Like-named read-outs stand apart in the source and are kept apart here.

Assays:
[1] = tested on: human tumor xenograft models; details: cited from earlier work
PI3Kα = PI3Kα (Homo sapiens, UniProt P42336); experiment: PI3K-alpha fluorescence polarization assay; assay type: biochemical; details: 20 μM PIP2, 25 μM ATP; read-out: PI3Kα Median IC50
Sequence of PI3Kα (P42336 whole entry, species assumed): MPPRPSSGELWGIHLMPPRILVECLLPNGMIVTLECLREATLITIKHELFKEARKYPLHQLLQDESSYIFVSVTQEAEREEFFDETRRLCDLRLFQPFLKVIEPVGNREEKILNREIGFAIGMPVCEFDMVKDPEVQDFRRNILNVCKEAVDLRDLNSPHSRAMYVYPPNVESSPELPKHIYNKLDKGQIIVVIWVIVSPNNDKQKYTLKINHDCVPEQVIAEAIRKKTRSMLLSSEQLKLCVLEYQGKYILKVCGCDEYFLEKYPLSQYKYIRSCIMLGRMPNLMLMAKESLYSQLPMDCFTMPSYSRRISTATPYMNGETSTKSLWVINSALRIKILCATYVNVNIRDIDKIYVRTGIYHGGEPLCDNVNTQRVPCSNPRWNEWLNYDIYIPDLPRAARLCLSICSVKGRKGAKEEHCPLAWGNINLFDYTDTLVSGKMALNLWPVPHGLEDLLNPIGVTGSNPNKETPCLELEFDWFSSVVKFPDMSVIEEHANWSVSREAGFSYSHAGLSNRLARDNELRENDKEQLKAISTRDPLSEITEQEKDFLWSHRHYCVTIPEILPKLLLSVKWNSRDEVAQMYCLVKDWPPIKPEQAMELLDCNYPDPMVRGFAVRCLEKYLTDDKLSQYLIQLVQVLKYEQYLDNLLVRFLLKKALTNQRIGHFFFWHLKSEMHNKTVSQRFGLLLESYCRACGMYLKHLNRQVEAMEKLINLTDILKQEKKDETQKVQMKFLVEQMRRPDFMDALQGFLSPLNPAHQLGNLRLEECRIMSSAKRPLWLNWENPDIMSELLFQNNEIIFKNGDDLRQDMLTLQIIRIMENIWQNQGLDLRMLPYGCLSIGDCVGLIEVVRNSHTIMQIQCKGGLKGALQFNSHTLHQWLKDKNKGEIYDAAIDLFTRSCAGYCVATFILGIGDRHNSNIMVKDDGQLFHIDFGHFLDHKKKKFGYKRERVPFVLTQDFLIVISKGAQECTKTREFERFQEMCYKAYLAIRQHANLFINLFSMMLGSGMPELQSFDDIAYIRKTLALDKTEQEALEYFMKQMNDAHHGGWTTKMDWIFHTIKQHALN
Sequence of PI3Kα (P27986 whole entry partner, species assumed): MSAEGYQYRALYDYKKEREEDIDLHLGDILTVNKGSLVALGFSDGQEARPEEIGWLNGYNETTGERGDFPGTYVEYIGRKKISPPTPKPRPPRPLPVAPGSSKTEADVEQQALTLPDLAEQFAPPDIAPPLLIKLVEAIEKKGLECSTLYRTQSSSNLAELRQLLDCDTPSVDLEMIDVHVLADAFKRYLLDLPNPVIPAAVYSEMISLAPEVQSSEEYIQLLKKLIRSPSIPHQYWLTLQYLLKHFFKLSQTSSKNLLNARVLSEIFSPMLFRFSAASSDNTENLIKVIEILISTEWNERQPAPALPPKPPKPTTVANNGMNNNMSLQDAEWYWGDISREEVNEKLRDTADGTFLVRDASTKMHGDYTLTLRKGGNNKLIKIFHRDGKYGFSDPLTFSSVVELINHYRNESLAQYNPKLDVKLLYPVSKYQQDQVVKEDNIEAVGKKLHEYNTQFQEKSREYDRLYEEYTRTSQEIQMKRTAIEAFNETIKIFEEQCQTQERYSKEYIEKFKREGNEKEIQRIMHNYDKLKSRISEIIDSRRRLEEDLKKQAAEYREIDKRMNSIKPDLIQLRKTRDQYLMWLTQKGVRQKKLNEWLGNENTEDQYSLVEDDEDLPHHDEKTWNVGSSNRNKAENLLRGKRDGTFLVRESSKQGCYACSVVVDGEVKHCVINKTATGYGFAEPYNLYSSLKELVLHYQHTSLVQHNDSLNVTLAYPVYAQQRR

PI3Kγ = PI3Kγ (Homo sapiens, UniProt P48736); experiment: PI3K-gamma fluorescence polarization assay; assay type: biochemical; details: 20 μM PIP2, 25 μM ATP; read-out: PI3Kγ Median IC50
Sequence of PI3Kγ (P48736 whole entry, species assumed): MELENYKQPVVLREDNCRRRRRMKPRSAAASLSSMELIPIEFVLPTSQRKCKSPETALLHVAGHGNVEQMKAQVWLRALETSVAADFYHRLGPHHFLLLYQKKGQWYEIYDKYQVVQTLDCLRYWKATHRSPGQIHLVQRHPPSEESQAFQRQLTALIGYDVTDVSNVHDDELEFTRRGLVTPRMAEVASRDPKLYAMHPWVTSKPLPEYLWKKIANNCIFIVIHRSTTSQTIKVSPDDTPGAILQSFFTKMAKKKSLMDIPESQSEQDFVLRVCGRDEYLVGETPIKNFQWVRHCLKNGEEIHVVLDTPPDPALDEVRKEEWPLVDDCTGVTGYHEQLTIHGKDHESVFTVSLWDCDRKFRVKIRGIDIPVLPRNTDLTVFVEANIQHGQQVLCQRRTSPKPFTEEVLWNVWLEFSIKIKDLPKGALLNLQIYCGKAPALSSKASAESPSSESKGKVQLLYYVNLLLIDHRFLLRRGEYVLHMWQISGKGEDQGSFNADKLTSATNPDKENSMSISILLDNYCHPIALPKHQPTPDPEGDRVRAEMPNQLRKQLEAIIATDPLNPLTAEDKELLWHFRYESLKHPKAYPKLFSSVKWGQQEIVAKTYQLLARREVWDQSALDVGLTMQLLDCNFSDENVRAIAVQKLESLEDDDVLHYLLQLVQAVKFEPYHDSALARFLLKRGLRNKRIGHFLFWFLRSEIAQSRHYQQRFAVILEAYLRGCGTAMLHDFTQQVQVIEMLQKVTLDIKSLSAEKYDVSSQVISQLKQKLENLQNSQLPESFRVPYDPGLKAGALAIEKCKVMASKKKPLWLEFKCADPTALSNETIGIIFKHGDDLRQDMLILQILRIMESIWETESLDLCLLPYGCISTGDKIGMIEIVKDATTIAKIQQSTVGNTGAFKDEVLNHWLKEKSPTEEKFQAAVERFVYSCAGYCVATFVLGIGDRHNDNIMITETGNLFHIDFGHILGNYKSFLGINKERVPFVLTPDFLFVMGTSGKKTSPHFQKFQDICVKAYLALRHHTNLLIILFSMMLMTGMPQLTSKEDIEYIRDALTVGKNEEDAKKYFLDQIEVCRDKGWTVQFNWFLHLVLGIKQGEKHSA
Procedure, shortened: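 Enzyme preincubated with compound in 20 mM HEPES pH 7.5, 2 mM MgCl2, 0.05% CHAPS, 0.01% βME; reaction started with substrate giving 20 μM diC8 PIP2 and 25 μM ATP final, run 30-60 min at room temperature. Stopped with TAMRA-labelled PIP3 detector probe plus GST-GRP; PIP3 formation read by fluorescence polarization after 90-110 min.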

mTOR Kinase (FLAG-TOR) = target: T1, mTOR Kinase (FLAG-TOR) (Homo sapiens, UniProt P42345); experiment: mTOR kinase assay, purified enzyme, DELFIA format; assay type: biochemical; details: 100 μM ATP, 1.25 μM His6-S6K; read-out: mTOR Kinase Median IC50
T1 construct: FLAG

Structure (SMILES)	activity in human tumor xenograft models ([1]; I.P. dosing in mice, U87MG, PC3, MDA-MB-468, MDA-MB-435, HCT 116, SKOV3, IGROV-1)	IC50 (PI3Kα) [nM]	IC50 (PI3Kγ) [nM]	IC50 (mTOR Kinase (FLAG-TOR)) [nM]	activity in human tumor xenograft models ([1]; prostrate (PC-3) and glioblastoma (U-87))
Oc1cccc(-c2nc(N3CCOCC3)c3oc4ncccc4c3n2)c1 [PI103, 3-(4-(4-morpholinyl)pyrido[3′,2′:4,5]furo[3,2-d]pyrimidin-2-yl)phenol]	demonstrated activity	–	–	–	–
O=C(Nc1nc2cc(-c3nc(N4CCOCC4)c4ccn(CC(F)(F)F)c4n3)ccc2[nH]1)c1ccncc1 [Compound 47, N-{5-[4-morpholin-4-yl-7-(2,2,2-trifluoroethyl)-7H-pyrrolo[2,3-d]pyrimidin-2-yl]-1H-benzimidazol-2-yl}isonicotinamide]	–	1080	5230	300	–
CN(C)CCn1ccc2c(N3CCOCC3)nc(-c3ccc(N)cc3)nc21 [Compound 8, 4-{7-[2-(dimethylamino)ethyl]-4-morpholin-4-yl-7H-pyrrolo[2,3-d]pyrimidin-2-yl}aniline]	–	2980	> 10000	> 3750	–
CC(C)n1ccc2c(N3CCOCC3)nc(-c3ccc(NC(=O)Nc4ccc(C(=O)N5CCNCC5)cc4)cc3)nc21 [Compound 83, 1-[4-(7-isopropyl-4-morpholin-4-yl-7H-pyrrolo[2,3-d]pyrimidin-2-yl)phenyl]-3-[4-(piperazin-1-ylcarbonyl)phenyl]urea]	–	< 2.3	13	0.64	–
CN(C)CCNC(=O)Nc1ccc(-c2nc(N3CCOCC3)c3ccn(CCN(C)C)c3n2)cc1 [Compound 14, 1-[2-(dimethylamino)ethyl]-3-(4-{7-[2-(dimethylamino)ethyl]-4-morpholin-4-yl-7H-pyrrolo[2,3-d]pyrimidin-2-yl}phenyl)urea]	–	78	554	2150	–
CNc1nc2cc(-c3nc(N4CCOCC4)c4ccn(CC(F)(F)F)c4n3)ccc2[nH]1 [Compound 48, N-methyl-5-[4-morpholin-4-yl-7-(2,2,2-trifluoroethyl)-7H-pyrrolo[2,3-d]pyrimidin-2-yl]-1H-benzimidazol-2-amine]	–	1200	3660	340	–
CN(C)CCn1cc(C(=O)Nc2cccnc2)c2c(N3CCOCC3)nc(-c3ccc(NC(=O)Nc4cccnc4)cc3)nc21 [Compound 10, 7-[2-(dimethylamino)ethyl]-4-morpholin-4-yl-N-pyridin-3-yl-2-{4-[(pyridin-3-ylcarbamoyl)amino]phenyl}-7H-pyrrolo[2,3-d]pyrimidine-5-carboxamide]	–	16	72	0.88	–
CN(C)CCNC(=O)Nc1ccc(-c2nc(N3CCOCC3)c3ccn(CC(F)(F)F)c3n2)cc1 [Compound 41, 1-[2-(dimethylamino)ethyl]-3-{4-[4-morpholin-4-yl-7-(2,2,2-trifluoroethyl)-7H-pyrrolo[2,3-d]pyrimidin-2-yl]phenyl}urea]	–	154	664	110	–
COC(=O)c1ccc(NC(=O)Nc2ccc(-c3nc(N4CCOCC4)c4ccn(C(C)C)c4n3)cc2)cc1 [Compound 89, methyl 4-({[4-(7-isopropyl-4-morpholin-4-yl-7H-pyrrolo[2,3-d]pyrimidin-2-yl)phenyl]carbamoyl}amino)benzoate]	–	116	511	4.8	–
CC(C)n1ccc2c(N3CCOCC3)nc(-c3ccc(NC(=O)Nc4ccc(N5CCN(C)CC5)cc4)cc3)nc21 [Compound 80, 1-[4-(7-isopropyl-4-morpholin-4-yl-7H-pyrrolo[2,3-d]pyrimidin-2-yl)phenyl]-3-[4-(4-methylpiperazin-1-yl)phenyl]urea]	–	47	135	2.8	–
CC(C)N1CCN(C(=O)c2ccc(NC(=O)Nc3ccc(-c4nc(N5CCOCC5)c5ccn(C(C)C)c5n4)cc3)cc2)CC1 [Compound 93, 1-{4-[7-(1-methylethyl)-4-morpholin-4-yl-7H-pyrrolo[2,3-d]pyrimidin-2-yl]phenyl}-3-(4-{[4-(1-methylethyl)piperazin-1-yl]carbonyl}phenyl)urea]	–	12	82	0.94	–
NC(=O)Nc1cccc(Cn2ccc3c(N4CCOCC4)nc(-c4ccc(NC(=O)Nc5ccncc5)cc4)nc32)c1 [Compound 20, 1-(4-{7-[3-(carbamoylamino)benzyl]-4-morpholin-4-yl-7H-pyrrolo[2,3-d]pyrimidin-2-yl}phenyl)-3-pyridin-4-ylurea]	–	61	196	3.5	–
CC(C)n1ccc2c(N3CCOCC3)nc(-c3ccc(NC(=O)Nc4ccc(C(=O)O)cc4)cc3)nc21 [Compound 90, 4-({[4-(7-isopropyl-4-morpholin-4-yl-7H-pyrrolo[2,3-d]pyrimidin-2-yl)phenyl]carbamoyl}amino)benzoic acid]	–	25.7	151	0.81	–
CCn1ccc2c(N3CCOCC3)nc(-c3ccc(NC(=O)Nc4ccc(C(=O)NCCN(C)C)cc4)cc3)nc21 [Compound 62, N-[2-(dimethylamino)ethyl]-4-({[4-(7-ethyl-4-morpholin-4-yl-7H-pyrrolo[2,3-d]pyrimidin-2-yl)phenyl]carbamoyl}amino)benzamide]	–	< 2.4	25	0.56	–
O=C(Nc1ccncc1)Nc1ccc(-c2nc(N3CCOCC3)c3ccn(CCNc4ccc(F)cc4)c3n2)cc1 [Compound 25, 1-[4-(7-{2-[(4-fluorophenyl)amino]ethyl}-4-morpholin-4-yl-7H-pyrrolo[2,3-d]pyrimidin-2-yl)phenyl]-3-pyridin-4-ylurea]	–	41	418	33	–
CCN1CCN(C(=O)c2ccc(NC(=O)Nc3ccc(-c4nc(N5CCOCC5)c5ccn(C(C)C)c5n4)cc3)cc2)CC1 [Compound 92, 1-{4-[(4-ethylpiperazin-1-yl)carbonyl]phenyl}-3-{4-[7-(1-methylethyl)-4-morpholin-4-yl-7H-pyrrolo[2,3-d]pyrimidin-2-yl]phenyl}urea]	–	8.5	72	0.67	–
CC(C)n1ccc2c(N3CCOCC3)nc(-c3ccc(NC(=O)Nc4ccc(C(=O)NCCN(C)C)cc4)cc3)nc21 [Compound 86, N-[2-(dimethylamino)ethyl]-4-({[4-(7-isopropyl-4-morpholin-4-yl-7H-pyrrolo[2,3-d]pyrimidin-2-yl)phenyl]carbamoyl}amino)benzamide]	–	1.7	50	0.38	–
O=C(Nc1ccc(-c2nc(N3CCOCC3)c3cc[nH]c3n2)cc1)Nc1cccnc1 [Compound 5, 1-[4-(4-morpholin-4-yl-7H-pyrrolo[2,3-d]pyrimidin-2-yl)phenyl]-3-pyridin-3-ylurea]	–	15	78	1.7	–
CNCCN(C)C(=O)c1ccc(NC(=O)Nc2ccc(-c3nc(N4CCOCC4)c4ccn(CC(F)(F)F)c4n3)cc2)cc1 [Compound 53, N-methyl-N-[2-(methylamino)ethyl]-4-[({4-[4-morpholin-4-yl-7-(2,2,2-trifluoroethyl)-7H-pyrrolo[2,3-d]pyrimidin-2-yl]phenyl}carbamoyl)amino]benzamide]	–	< 2.1	16	0.57	–
CC(C)n1ccc2c(N3CCOCC3)nc(-c3ccc(NC(=O)Nc4ccc(OCCN(C)C)cc4)cc3)nc21 [Compound 81, 1-{4-[2-(dimethylamino)ethoxy]phenyl}-3-[4-(7-isopropyl-4-morpholin-4-yl-7H-pyrrolo[2,3-d]pyrimidin-2-yl)phenyl]urea]	–	34	219	2.95	–
O=C(Nc1ccc(-c2nc(N3CCOCC3)c3ccn(CC(F)(F)F)c3n2)cc1)OCCO [Compound 43, 2-hydroxyethyl{4-[4-morpholin-4-yl-7-(2,2,2-trifluoroethyl)-7H-pyrrolo[2,3-d]pyrimidin-2-yl]phenyl}carbamate]	–	570	1720	3.9	–
CC(C)n1ccc2c(N3CCOCC3)nc(-c3ccc(NC(=O)Nc4ccncc4)cc3)nc21 [Compound 79, 1-[4-(7-isopropyl-4-morpholin-4-yl-7H-pyrrolo[2,3-d]pyrimidin-2-yl)phenyl]-3-pyridin-4-ylurea]	–	28	193	1.15	–
CCn1ccc2c(N3CCOCC3)nc(-c3ccc(NC(=O)Nc4ccc(C(=O)N5CCN(C)CC5)cc4)cc3)nc21 [Compound 63, 1-[4-(7-ethyl-4-morpholin-4-yl-7H-pyrrolo[2,3-d]pyrimidin-2-yl)phenyl]-3-{4-[(4-methylpiperazin-1-yl)carbonyl]phenyl}urea]	–	1.4	19	1.75	–
Nc1nc2cc(-c3nc(N4CCOCC4)c4ccn(CC(F)(F)F)c4n3)ccc2[nH]1 [Compound 45, 5-[4-morpholin-4-yl-7-(2,2,2-trifluoroethyl)-7H-pyrrolo[2,3-d]pyrimidin-2-yl]-1H-benzimidazol-2-amine]	–	45	506	36.5	–
Cn1c(=O)n(-c2ccc(C(C)(C)C#N)cc2)c2c3cc(-c4cnc5ccccc5c4)ccc3ncc21 [NVP-BEZ-235, 2-methyl-2-(4-(3-methyl-2-oxo-8-(quinolin-3-yl)-2,3-dihydro-1H-imidazo[4,5-c]quinolin-1-yl)phenyl)propanenitrile]	–	–	–	–	demonstrated activity
